US20250249001A1, “METHODS OF TREATING SUBSTANCE USE DISORDER WITH 4-(3-CYANOPHENYL)-6-PYRIDINYLPYRIMIDINE MGLU5 NEGATIVE ALLOSTERIC MODULATORS” (Tempero Bio, Inc., priority 2022, published 2025)

Experiments:
[1] = test system: cocaine-induced CPP in male SD rats; format: in vivo, Sprague Dawley rats; conditions: cocaine 10 mg/kg IP on days 3, 5, 7, 9; day 10 bias test
Method: Animals: Male Sprague Dawley rats (Envigo, IN, 275-299 g) were group housed upon arrival (2 per cage). All rats were examined and handled to assure adequate health and suitability. During the study, a 12/12 light/dark cycle was maintained (lights switched on at 7:00 am). The room temperature was maintained between […] and 23° C. with a relative humidity maintained around 50%. Chow (LabDiet #5001) and water were provided ad libitum for the duration of the study. The test was performed during the animal's light cycle phase.
Cocaine (10 mg/kg) was dissolved in saline and injected IP at a dose volume of 1 ml/kg. Cocaine was administered on training days 3, 5, 7 and 9 immediately prior to training.
3-((2-Methyl-4-thiazolyl)ethynyl)pyridine (MTEP, 3 mg/kg), was dissolved in saline and injected IP on day 10 (bias test) at a dose volume of 1 ml/kg 30 minutes prior to testing.
Compound 1 (1, 3 and 10 mg/kg) was formulated in 10% Solutol HS15 and 90% (10% aqueous 2-hydroxypropyl-β-cyclodextrin) and injected IP on day 10 (bias test) at a dose volume of 2 ml/kg. Compound 1 was administered 30 minutes prior to testing.
The chamber used in this study contained two compartments [(60 cm (L)×40 cm (W)×24 cm (H)]. The compartment used for each animal and drug pairing was assigned and counterbalanced in advance and adjusted as necessary in the rebalancing procedure after day 1 (see details below). Within the chamber, visual and physical features were used to create the two distinct compartments. For example, one compartment may have a flat plastic floor with white stripes and the other may have a textured floor and black stripes. The chambers were cleaned with 70% alcohol in between runs.
Testing sessions were recorded on days 1 and 10 to determine time spent (seconds) in each chamber.
Day 1 Pre-conditioning/Habituation: Animals are allowed to explore the entire testing chamber freely for 20 min. Animals that display a strong preference for one compartment (>75% time spent in one compartment) are excluded.
Rebalancing Procedure: Animals are rebalanced following day 1 scoring if the difference between groups for time spent in one compartment is greater than 15%.
Days 2-9 Conditioning: All animals are treated with saline on days 2, 4, 6, and 8 and with cocaine or saline on days 3, 5, 7, and 9 depending on their assigned group. Animals are confined to their assigned compartment (saline- or cocaine-paired compartment) for 20 minutes following dosing.
Day 10 Post-conditioning bias test: Animals are dosed once with either saline, MTEP or Compound 1 (1, 3 and 10 mg/kg) according to their assigned. Following dosing, animals are allowed to explore the testing chamber freely for 20 minutes with the compartment dividing door open. Their activity exploring the chamber is recorded for analysis.
Statistical Analysis: Statistical analysis was conducted using GraphPad Prism 9. Scorers blinded to the treatment groups scored the amount of time each animal spent exploring each chamber on days 1 and 10. For bias test data, a one-way analysis of variance (ANOVA) followed by Dunnett's post hoc test was used. Significance was set at p<0.05 and values exceeding two standard deviations of the mean were considered statistical outliers and were excluded from the analysis. Additionally, if an animal spent >85% or <15% of the time in one compartment even without any obvious signs of sedation or locomotor dysfunction, they were excluded from the analysis.

[2] = test system: operant alcohol self-administration in Wistar rats; assay: Operant alcohol self-administration (FR-1), acute treatment; format: in vivo; conditions: 3 mg/kg IP, 1-h pretreatment
Source text: Twelve operant conditioning chambers designed for rats (30.5 cm×24.1 cm×21.0 cm; Med Associates, Georgia, VT) were located within sound-attenuating cubicles in a devoted room to limit extraneous potential impact by extraneous environmental variables. Each cubicle was equipped with an exhaust fan that provided ventilation and masked external sounds. The chambers were electronically interfaced to a Microsoft Windows based computer that was programmed using investigator developed software to control sessions and record number of lever press responses at 100-ms intervals.
The right wall of each chamber contained a liquid receptacle and a response lever (Med Associates) that was termed the active lever. Lever press responses on the active lever activated a syringe pump (PHM-100, Med Associates) that delivered 0.1 ml of alcohol solution (ethanol 8% v/v+sucrose 2% w/v) into the receptacle over a 1.66-s period. Head entries into the liquid receptacle were recorded when an infrared photo beam was broken. A stimulus light located above the response lever was illuminated during pump activation. Lever presses during reinforcer delivery were recorded but produced no programmed consequence. […] Behavior on this lever serves as a control for motor disruptions and other nonspecific effects of test compounds. […]
Testing the efficacy of Compound 1 to reduce the reinforcing, or rewarding, effects of alcohol. Following establishment of stable baseline self-administration behavior, effects of pre-session treatment with the novel mGluR5 negative allosteric modulator Compound 1 (0, 0.3, 1, 3, and 10 mg/kg, IP) were evaluated on operant alcohol self-administration behavior (n=12 rats). […] Parameters of operant performance were measured, including total lever press responses, number of headpokes into the liquid receptacle, and rate of operant responding, which is a direct measure of positive reinforcement function. […]

[3] = test system: voluntary home-cage alcohol drinking by Wistar rats; assay: Home-cage two-bottle choice alcohol drinking, acute treatment; format: in vivo
Method: Animals: Male Wistar rats (Charles River Laboratories, INC) were used in these studies. Rat housing and testing was conducted at the University of North Carolina at Chapel Hill (UNC-CH) School of Medicine in a state-of-the-art rodent vivarium approved by the Association for Assessment and Accreditation of Laboratory Animal Care International (AAALAC). Rat health was monitored daily by study investigators and veterinarians in the Division of Comparative Medicine UNC. All experimental procedures were carried out in accordance with the NIH Guide to Care and Use of Laboratory Animals (Committee for the Update of the Guide for the Care and Use of Laboratory Animals, 2011) and institutional guidelines.
Rats were housed individually in standard Plexiglas cages with standard rodent food and water available ad libitum. Upon arrival from the vendor, rats were given 7 days to acclimate to the vivarium during which they were weighed and handled by an investigator each day to monitor general health and habituate them to human contact. Rats were then weighed each day within 1-h of experimental procedures to calculate drug dosages relative to body weight. […] The colony was maintained at […] on a 12-hour light/dark cycle, with the lights on from 10 AM-10 PM. All behavioral experiments were conducted during the light portion of the light cycle.
Home-cage alcohol drinking method. Oral alcohol and water intake were examined using a two-bottle choice protocol, which is standard in the field and commonly used in our laboratory. Male Wistar rats (n=12) were first adapted to drinking from a 50 ml conical tube fitted with a standard stainless-steel ball bearing sipper tube that limits spillage. Then, two bottles were place on the cage daily. One bottle contained an alcohol solution and the other contained water. Bottles containing fresh solutions were weighed daily before and after a 24 hr access period. After drug treatment, bottles were weighed after 1 hr and 24 hrs of access. Each week, rats had 4-5 days of sweetened alcohol and water available and the remaining days only water.
Briefly, rats were first exposed to alcohol (10% v/v)+sucrose (5% w/v). versus water in the two bottles. Then, over a period of 6-weeks, the concentrations of alcohol and sucrose were gradually adjusted to alcohol (8% v/v)+sucrose (2% w/v) to achieve intake of pharmacologically relevant doses of alcohol. Rats were maintained at this concentration for the duration of the experiment for both acute (3.1.a) and chronic (3.1.b) home-cage drinking studies. Use of sweetened alcohol solutions in preclinical research provides face validity to the binge-intoxication stage of alcohol addiction in humans where sweeteners are commonly added to alcohol.
Compound 1 treatment. After establishing baseline intake of sweetened alcohol and water, rats were habituated to i.p. injections. All rats (N=12) were administered 3 habituation injections of vehicle (10% w/v kolliphor in BCD (10%)) prior to the Compound 1 dose response curve and alcohol intake was measured. Then, the Compound 1 dose response curve was conducted with dose order randomized according to a modified Latin-Square design. Rats were given a minimum of 1-2 days between injections to ensure normal drinking was re-established in absence of drug administration. Each dose of Compound 1 (0-10 mg/kg) was administered via i.p. injection and rats were placed back in the home-cage for 1 hr prior to the return of sweetened alcohol and water. Alcohol intake was measured after 1-h and 24-hrs of access in grams by weighing the drinking bottles. Data were excluded from 1 rat that emptied both bottles fully each day without drinking the solutions; thus, results are presented for a final group of N=11 rats.
Efficacy comparisons to MPEP and Naltrexone. […]

Structure (SMILES) | Percent time in compound-paired compartment, Mean Diff., Cocaine - Saline vs. Saline - Saline [1] | Preference Scores (time difference drug-paired minus saline-paired), Mean Diff., Cocaine - Saline vs. Saline - Saline [1] | EtOH reinforced responses vs vehicle, multiple comparisons [2] | H2O intake after 24-hr access ([3]; 3 mg/kg i.p., Compound 1 or comparison compounds) | water intake after 1-hr access ([3]; Compound 1 0-10 mg/kg, or Compound 1, MPEP, Naltrexone 3 mg/kg i.p.) | alcohol intake at the 24-hr measurement interval, comparison of equivalent doses ([3]; each drug 3 mg/kg i.p. acute) | alcohol drinking at 1-hr of access vs vehicle control, positive control comparison ([3]; each drug 3 mg/kg i.p. acute, N=11)
COC(=O)[C@H]1[C@@H](OC(=O)c2ccccc2)C[C@@H]2CC[C@H]1N2C [Cocaine] | 13.86% | 332.9 s |  |  |  |  | 
O=C1CC[C@@]2(O)[C@H]3Cc4ccc(O)c5c4[C@@]2(CCN3CC2CC2)[C@H]1O5 [Naltrexone, reference compound] |  |  | reduced EtOH reinforced responses | no effect | did not reach statistical significance | only Compound 1 (3 mg/kg) maintained efficacy | significantly decreased alcohol drinking
